Experimental data: patent US6057324A, “Substituted amidinobenzene derivatives and medicinal compositions thereof” (Yamanouchi Pharmaceutical Co., Ltd, priority 1996, dated 2000)

What was measured:
platelets = test: Ex vivo platelet aggregation-inhibiting activity in cynomolgus monkeys; details: 1 mg/kg via stomach tube, triggers 20 μM ADP and 10 μg/ml collagen
Experimental: Cynomolgus monkeys that had been lightly anesthetized by intramuscular administration of ketamine hydrochloride were fixed on a work-bench, and a sample compound of the present invention dissolved or suspended in a methylcellulose solution was administered into the stomach via a stomach tube at a dose of 1 mg/kg. Before the administration and after the administration at a predetermined period of time, 3 ml (containing 1/10 times by volume of sodium citrate) of the blood was collected from the animal through the femoral vein. From the blood, platelet-rich-plasma (PRP) was obtained according to the method of De Marco et al's (see J. clin. Invest., 77, 1272-1277, 1986). The PRP was adjusted at 3×10^8 /ml with an automatic blood cell counter (MEK-5158 Model, produced by Nihon Koden Co.) before use. Then, 20 μM of ADP and 10 μg/ml of bovine tendon-derived collagen (produced by Niko Bioscience Co.) as triggers to cause the aggregation of the platelets. The degree of the aggregation of the platelets was measured with a platelet aggregation meter (NBS Hematracer 801, produced by Niko Bioscience Co.). The platelet aggregation-inhibiting activity of the tested compound was represented by the inhibition percentage (%) relative to the maximum aggregation percentage of each animal before the addition of the test compound.
The test results are shown in Table 2 together with the results of the Compound A which is the active body of the compounds of the present invention.

[1] = Metabolic test of an active body (Compound A) in plasma after oral administration to beagle dogs; format: in vivo; details: 10 mg/kg
Experimental: Compound of Example 2 of the present invention was administered to three beagle dogs orally at a dose of 10 mg/kg as an aqueous solution and then blood was withdrawn over 48 hours after administration. After centrifugation, plasma was separated and then stored at -20° C. until analysis. Compound A (compound name: 4-[4-(4-amidinophenyl)-3-oxo-1-piperazinyl]-1-piperidineacetic acid, an unexamined published Japanese patent application No. 8-333342), which is an active body produced as a metabolite of Compound of Example 2, was determined by the high performance liquid chromatography method to obtain the pharmacokinetic parameters. Compound A was also administered to the same beagle dogs at a dose of 10 mg/kg, and then plasma Compound A concentration was measured. Pharmacokinetic parameters of Compound A after the administration of Compound of Example 2 and Compound A were compared-with each other. In Table 1 it is shown the pharmacokinetic parameters of plasma Compound A after oral administration, and in FIG. 1 it is shown the plasma concentration-time profile of Compound A after oral administration.
Table 1 represents Pharmacokinetic parameters of plasma Compound A after oral administration of Compound of Example 2 and Compound A to beagle dogs at a dose of 10 mg/kg (mean of three animals±standard deviation) and FIG. 1 represents plasma concentration-time profile of Compound A.

bioavailability of Compound A when administered as prodrug (in words) [1] | plasma residence time of Compound A when administered as prodrug (in words) [1] | t1/2 of Compound A compared with administration of Compound A (in words) [1] | AUC(0-t) at 48 h ([1]; dog, plasma, mean of three animals ± standard deviation, analyte Compound A, read-out: AUC0-48 (area under the time-concentration curve in plasma over 48 hours) of Compound A) [ng·h/mL] | Cmax ([1]; dog, plasma, mean of three animals ± standard deviation, analyte Compound A, read-out: Cmax (maximum plasma concentration) of plasma Compound A) [ng/mL] | Tmax ([1]; dog, plasma, mean of three animals ± standard deviation, analyte Compound A, read-out: Tmax (time to reach Cmax) of plasma Compound A) [h] | half-life ([1]; dog, plasma, mean of three animals ± standard deviation, analyte Compound A, read-out: t1/2 (elimination half life) of plasma Compound A (converted)) [h] | Compound | Platelet aggregation-inhibiting ratio after 3 hours (platelets) [%] | Platelet aggregation-inhibiting ratio after 6 hours (platelets) [%] | Platelet aggregation-inhibiting ratio after 9 hours (platelets) [%] | Platelet aggregation-inhibiting ratio after 12 hours (platelets) [%] | Platelet aggregation-inhibiting ratio after 24 hours (platelets) [%]
– | – | – | – | – | – | – | CCOC(=O)CN1CCC(N2CCN(c3ccc(C(=N)NC(=O)OC)cc3)C(=O)C2)CC1 [Example 7, Ethyl 4-[4-(4-methoxycarbonylamidinophenyl)-3-oxo-1-piperazinyl]-1-piperidineacetate] | 9.0 ± 5.7 | 42.0 ± 14.7 | 60.0 ± 15.6 | 64.3 | 26.0 ± 2.9
increase | increase | greatly prolonged | – | – | – | – | CCOC(=O)CN1CCC(N2CCN(c3ccc(C(=N)NO)cc3)C(=O)C2)CC1 [Example 2, ethyl 4-[4-(4-hydroxyamidinophenyl)-3-oxo-1-piperazinyl]-1-piperidineacetate] | 24.7 ± 23.7 | 66.3 ± 15.4 | 88.0 ± 11.0 | 89.0 | 54.0 ± 9.0
– | – | – | 3550 ± 838 | 748 ± 175 | 1.7 ± 0.6 | 2.1 | N=C(N)c1ccc(N2CCN(C3CCN(CC(=O)O)CC3)CC2=O)cc1 [Compound A, 4-[4-(4-amidinophenyl)-3-oxo-1-piperazinyl]-1-piperidineacetic acid] | 19.7 ± 9.4 | 16.3 ± 7.5 | 14.2 ± 5.9 | – | –
